Measured values published in patent US12544364B2, “Use of a phosphodiesterase 10 inhibitor for the treatment of tourette syndrome” (Noema Pharma AG, priority 2020, dated 2026).

Experiments:
Format in all cases: physicochemical
[1] = Stability in suspension vehicle and parenteral formulation; conditions: 0.5% HPC/1% Tween 80, up to 5 weeks at RT
Experimental: For parenteral administration, a 30% Kleptose formulation (1.5 mg/ml, physiologic osmolality, pH 6.2), with a stability of at least 4 weeks at 40° C. was developed.

[2] = Solubility of the crystalline form in aqueous media, simulated fluids and organic solvents; conditions: in the presence of surfactants (e.g., Tween-80, sodium dodecyl sulfate, dioctyl sulfosuccinate, Pluronic F68) and cyclodextrins
Experimental: Solubility in simulated gastric fluid (SGF), fasted state simulated intestinal fluid (FaSSIF), and fed state simulated intestinal fluid (FeSSIF) was 0.019 mg/ml, 0.006 mg/mL, and 0.022 mg/mL, respectively. Solubility increased 50-100-fold in the presence of surfactants (e.g., Tween-80, sodium dodecyl sulfate, dioctyl sulfosuccinate, or Pluronic F68) and cyclodextrins; however it was still rather low.

[3] = Thermodynamic stability of the crystalline form; conditions: at least between 20° C. and 60° C.
Excerpt: The XRPD pattern can be obtained by following protocols known in the field.

[4] = Preliminary forced degradation study (acidic, basic, oxidative, photolytic stress) and excipient compatibility
Experimental: (§1) Stability: Preliminary forced degradation study of the crystalline form of the free base of the compound of Formula I in acidic, basic, oxidative, and photolytic stress conditions was conducted to investigate the viability of the crystalline form in various stress conditions. Since the solubility of the compound of Formula I was low in the standard solvent ethanol, ethanol was replaced by N-methyl-2-pyrrolidone (NMP).
The crystalline form of the free base of the compound of Formula I was stable for up to 8 days in solid state at 80° C. and in solution at pH 3 to pH 7 at RT. […] The crystalline form was stable after exposure to light in solid state.

[5] = Preliminary solid state stability, UPLC analysis after storage
Experimental: as §1
A defined amount of the crystalline form of the free base of the compound of Formula I (0.2-0.8 mg) was weighed into a 1.8 mL HPLC vial and stored open (75% RH) or closed (ambient) at the temperature and the time indicated. After incubation, compound was dissolved in 1-1.5 mL NMP to a final concentration of 0.2-0.5 mg/mL and submitted to UPLC analysis (254 nm).

Stability in suspension vehicle [1]: stable | Solubility increase [2]: 50-100 fold | Thermodynamic stability [3]: thermodynamically stable | Excipient compatibility (CompaS assay) [4]: compatible with almost all excipients | Stability towards oxidation ([4]; 1 day): stable | Stability towards daylight ([4]; in solution): stable | Stability in solution ([4]; in solution at pH 3 to pH 7 at RT, up to 8 days): stable | Stability in solution at higher or lower pH ([4]; in solution, pH higher than 7 or lower than 3): degradation was observed | Stability in the Suntest ([4]; in solution, time dependent): moderately stable to unstable | Stability towards oxidation ([4]; prolonged exposure): some sensitivity | Stability after exposure to light ([4]; solid state): stable | Stability in solid state ([4]; solid state at 80° C., up to 8 days): stable | Degradation products ([5]; solid state at various temperatures): < 0.5% | UPLC analysis (Area % main peak) ([5]; solid state, 4 w, 4° C.): 100 Area % | UPLC analysis (Area % main peak) ([5]; solid state, 4 w, 40° C.): 100 Area % | UPLC analysis (Area % main peak) ([5]; solid state, 4 w, 40° C., 75% RH): 100 Area % | UPLC analysis (Area % main peak) ([5]; solid state, 4 w, 60° C.): 100 Area % | UPLC analysis (Area % main peak) ([5]; solid state, 4 w, RT): 100 Area % | Time stable in solid state ([5]; solid state, 40-60° C.): at least 4 weeks | UPLC analysis (Area % main peak) ([5]; solid state, 1 h, 80° C.): 100 Area % | UPLC analysis (Area % main peak) ([5]; solid state, 1 d, 80° C.): 100 Area % | UPLC analysis (Area % main peak) ([5]; solid state, 8 d, 80° C.): 100 Area %
SMILES: Cn1ncc(C(=O)N2CCOCC2)c1C(=O)Nc1ccn2nc(-c3ccccc3)nc2c1 [1-methyl-4-(morpholine-4-carbonyl)-N-(2-phenyl[1,2,4]triazolo[1,5-a]pyridin-7-yl)-1H-pyrazole-5-carboxamide]
Particle growth and hydrate formation in suspension vehicle [1]: only minor particle growth and no hydrate formation
